Measurements published in patent publication US9624208B2, “Benzoxazolinone compounds with selective activity in voltage-gated sodium channels” (Merck Sharp & Dohme Corp., priority 2012, dated 2017).
“And” between values parts separate entries of the source, which are not always exact repeats. Equal values may be shown once.

How the values were obtained:
human Nav1.7 = molecular target: T1, human Nav1.7 (Homo sapiens, UniProt Q15858); test: PatchXpress sodium current measurement, inactivated state block, Nav1.7; assay type: cell-based; settings: channels stably expressed in HEK 293 cells, double-pulse protocol, 22° C., read-out: potency for the Nav 1.7 sodium ion channel (1.7=)
T1 construct: expressed in transfected cells
Protocol: (§1) Cell Based Assays for Nav 1.7 and Nav 1.5 Activity
(§2) Compounds were tested on human Nav1.7 and Nav1.5 channels stably expressed in HEK 293 cells.
(§3) Sodium Current Measurements on the PatchXpress 7000:
(§4) To measure inactivated state block of sodium channels, test compounds were characterized in an automated PatchXpress® assay (Molecular Devices) using a double-pulse protocol on human Nav1.7 and Nav1.5 channels stably expressed in HEK 293 cells. Cells were held at a potential 20 mV negative to the potential at which ˜50% of the channels are inactivated. A 8000 ms pre-pulse 7 mV positive to the potential at which ˜50% of the channels are inactivated was given followed by a hyperpolarizing 2 ms pulse to −120 mV and a 20 ms test pulse to −20 mV. The protocol was applied to cells in the absence, presence of compound and after washout. The temperature of PatchXpress® instruments was maintained at 22° C. The following recording solutions were used. Internal solution (mM): 30 CsCl, 5 HEPES, 10 EGTA, 120 CsF, 5 NaF, 2 MgCl2, pH 7.3 with CsOH. External solution (mM): 120 NMDG, 40 NaCl, 1 KCl, 0.5 MgCl2, 5 HEPES, 2.7 CaCl2, pH 7.5 with NMDG-OH. Estimated IC50 values were calculated based on at least two compound concentrations tested. For all electrophysiology experiments, offline analysis was used to correct for current rundown and to determine percent inhibition as a function of drug concentration. IC50 values were determined by fitting to the Hill equation.

human Nav1.5 = molecular target: T2, human Nav1.5 (Homo sapiens, UniProt Q14524); test: PatchXpress sodium current measurement, inactivated state block, Nav1.5; assay type: cell-based; settings: determined by PatchXpress measurement, HEK 293 cells
T2 construct: expressed in transfected cells
Protocol: as §1, §2, §3, §4

T2 sequence (Q14524 whole entry): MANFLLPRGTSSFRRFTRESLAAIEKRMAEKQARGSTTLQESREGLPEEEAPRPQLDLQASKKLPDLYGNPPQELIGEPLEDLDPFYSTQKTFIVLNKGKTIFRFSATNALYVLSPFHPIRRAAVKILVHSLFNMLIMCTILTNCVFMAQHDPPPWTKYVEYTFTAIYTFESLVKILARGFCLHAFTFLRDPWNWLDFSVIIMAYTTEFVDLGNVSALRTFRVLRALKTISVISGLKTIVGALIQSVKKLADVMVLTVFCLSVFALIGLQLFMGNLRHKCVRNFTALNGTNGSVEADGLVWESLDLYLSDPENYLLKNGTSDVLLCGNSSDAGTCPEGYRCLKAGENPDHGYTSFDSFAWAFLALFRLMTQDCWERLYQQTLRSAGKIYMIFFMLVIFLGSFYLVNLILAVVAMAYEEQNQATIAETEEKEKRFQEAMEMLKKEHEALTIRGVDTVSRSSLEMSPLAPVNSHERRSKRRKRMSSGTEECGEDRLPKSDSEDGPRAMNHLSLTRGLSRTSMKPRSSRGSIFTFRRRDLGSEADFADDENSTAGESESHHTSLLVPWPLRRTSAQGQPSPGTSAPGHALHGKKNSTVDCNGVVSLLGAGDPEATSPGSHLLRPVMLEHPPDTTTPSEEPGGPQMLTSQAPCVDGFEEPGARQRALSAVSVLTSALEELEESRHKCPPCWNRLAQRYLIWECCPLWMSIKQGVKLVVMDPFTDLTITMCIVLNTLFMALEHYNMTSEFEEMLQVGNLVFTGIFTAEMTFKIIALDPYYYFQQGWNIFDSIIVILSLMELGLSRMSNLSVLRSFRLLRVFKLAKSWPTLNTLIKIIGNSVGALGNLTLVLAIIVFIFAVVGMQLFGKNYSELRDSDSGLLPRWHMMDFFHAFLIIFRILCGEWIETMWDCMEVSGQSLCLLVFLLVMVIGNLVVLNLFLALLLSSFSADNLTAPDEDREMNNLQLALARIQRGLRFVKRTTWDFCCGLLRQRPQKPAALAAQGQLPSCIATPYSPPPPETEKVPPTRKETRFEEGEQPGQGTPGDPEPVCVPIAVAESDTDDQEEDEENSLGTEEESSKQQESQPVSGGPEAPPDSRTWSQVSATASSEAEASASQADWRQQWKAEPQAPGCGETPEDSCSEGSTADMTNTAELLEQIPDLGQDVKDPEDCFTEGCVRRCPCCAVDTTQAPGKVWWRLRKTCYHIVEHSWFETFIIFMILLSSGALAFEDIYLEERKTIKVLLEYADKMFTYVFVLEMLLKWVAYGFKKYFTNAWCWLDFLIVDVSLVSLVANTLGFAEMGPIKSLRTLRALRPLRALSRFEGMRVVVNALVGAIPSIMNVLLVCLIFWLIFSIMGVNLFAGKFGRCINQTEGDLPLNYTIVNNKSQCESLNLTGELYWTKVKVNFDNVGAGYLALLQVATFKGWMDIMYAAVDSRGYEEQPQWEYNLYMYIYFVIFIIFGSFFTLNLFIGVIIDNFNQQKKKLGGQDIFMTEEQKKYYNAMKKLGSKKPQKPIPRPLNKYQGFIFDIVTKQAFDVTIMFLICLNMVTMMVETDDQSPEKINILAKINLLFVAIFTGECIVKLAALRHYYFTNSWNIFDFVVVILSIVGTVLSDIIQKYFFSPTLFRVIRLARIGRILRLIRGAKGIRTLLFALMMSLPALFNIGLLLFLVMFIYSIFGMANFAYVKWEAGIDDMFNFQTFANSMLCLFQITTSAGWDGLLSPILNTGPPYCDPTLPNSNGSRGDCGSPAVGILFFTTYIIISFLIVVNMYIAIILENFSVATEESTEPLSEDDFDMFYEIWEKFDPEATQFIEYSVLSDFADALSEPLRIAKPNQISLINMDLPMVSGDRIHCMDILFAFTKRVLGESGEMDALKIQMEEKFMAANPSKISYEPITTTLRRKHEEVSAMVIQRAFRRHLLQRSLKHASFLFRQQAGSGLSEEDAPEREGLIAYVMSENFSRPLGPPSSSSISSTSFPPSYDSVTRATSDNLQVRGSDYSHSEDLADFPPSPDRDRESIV
T1 sequence (Q15858 whole entry): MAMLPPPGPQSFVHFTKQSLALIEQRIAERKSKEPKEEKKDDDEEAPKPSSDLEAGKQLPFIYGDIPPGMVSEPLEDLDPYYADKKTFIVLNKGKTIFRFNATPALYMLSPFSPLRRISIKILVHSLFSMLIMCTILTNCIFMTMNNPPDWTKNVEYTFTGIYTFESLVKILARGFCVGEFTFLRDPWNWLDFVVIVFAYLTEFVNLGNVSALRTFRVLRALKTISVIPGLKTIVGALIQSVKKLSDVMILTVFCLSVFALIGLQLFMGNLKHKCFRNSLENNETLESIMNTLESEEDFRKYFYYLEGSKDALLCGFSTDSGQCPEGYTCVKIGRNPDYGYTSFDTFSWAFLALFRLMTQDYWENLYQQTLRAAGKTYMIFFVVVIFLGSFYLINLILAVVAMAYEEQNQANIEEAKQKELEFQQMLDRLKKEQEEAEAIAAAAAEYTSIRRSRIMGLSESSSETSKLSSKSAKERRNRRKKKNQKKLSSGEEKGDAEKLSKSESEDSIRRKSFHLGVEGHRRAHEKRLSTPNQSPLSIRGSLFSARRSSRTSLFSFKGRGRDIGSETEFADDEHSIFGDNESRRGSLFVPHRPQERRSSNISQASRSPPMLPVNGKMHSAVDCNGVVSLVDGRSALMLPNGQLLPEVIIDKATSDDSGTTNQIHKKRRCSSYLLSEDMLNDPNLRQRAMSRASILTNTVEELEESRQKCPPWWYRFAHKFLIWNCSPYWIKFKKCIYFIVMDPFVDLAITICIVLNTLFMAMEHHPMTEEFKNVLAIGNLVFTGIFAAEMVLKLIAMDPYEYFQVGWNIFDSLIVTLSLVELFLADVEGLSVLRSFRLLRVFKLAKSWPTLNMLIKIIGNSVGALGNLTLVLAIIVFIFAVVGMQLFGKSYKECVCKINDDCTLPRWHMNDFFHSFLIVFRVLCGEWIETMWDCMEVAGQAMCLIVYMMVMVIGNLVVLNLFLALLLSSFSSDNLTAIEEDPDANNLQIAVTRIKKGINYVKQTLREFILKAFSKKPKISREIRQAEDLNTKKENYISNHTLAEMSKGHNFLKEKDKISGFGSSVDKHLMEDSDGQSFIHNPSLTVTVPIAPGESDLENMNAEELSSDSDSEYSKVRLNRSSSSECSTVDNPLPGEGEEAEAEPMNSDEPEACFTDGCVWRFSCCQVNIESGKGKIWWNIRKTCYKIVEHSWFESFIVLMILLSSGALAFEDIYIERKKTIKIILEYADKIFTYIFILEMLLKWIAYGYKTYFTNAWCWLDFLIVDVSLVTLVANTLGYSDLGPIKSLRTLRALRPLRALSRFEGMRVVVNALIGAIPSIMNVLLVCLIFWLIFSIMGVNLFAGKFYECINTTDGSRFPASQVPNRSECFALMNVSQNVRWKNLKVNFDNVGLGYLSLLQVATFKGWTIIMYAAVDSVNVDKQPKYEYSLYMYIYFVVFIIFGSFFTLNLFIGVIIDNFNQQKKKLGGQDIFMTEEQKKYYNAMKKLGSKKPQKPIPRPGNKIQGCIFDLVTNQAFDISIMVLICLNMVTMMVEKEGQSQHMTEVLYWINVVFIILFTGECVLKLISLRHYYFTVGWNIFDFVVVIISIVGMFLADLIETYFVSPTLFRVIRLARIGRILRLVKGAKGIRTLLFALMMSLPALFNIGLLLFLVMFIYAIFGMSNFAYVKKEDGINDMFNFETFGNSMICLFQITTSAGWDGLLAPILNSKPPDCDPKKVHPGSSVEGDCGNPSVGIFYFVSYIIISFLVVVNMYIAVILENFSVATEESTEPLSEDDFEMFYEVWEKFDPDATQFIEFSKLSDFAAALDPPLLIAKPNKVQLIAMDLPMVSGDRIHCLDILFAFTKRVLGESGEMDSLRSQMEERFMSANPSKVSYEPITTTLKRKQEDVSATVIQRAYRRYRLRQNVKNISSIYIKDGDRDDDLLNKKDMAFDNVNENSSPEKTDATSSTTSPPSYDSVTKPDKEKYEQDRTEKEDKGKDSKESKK

| IC50 (human Nav1.7) | SMILES | ratio of Nav 1.5:Nav 1.7 potency (human Nav1.5) |
| --- | --- | --- |
| 234 nM | C[C@H](c1cccc(C#CCN2CCN(C)CC2)c1)n1c(=O)oc2cc(S(=O)(=O)Nc3cccc(F)n3)c(F)cc21 [Ex21-14, 5-fluoro-N-(6-fluoropyridin-2-yl)-3-[(1R)-1-{3-[3-(4-methylpiperazin-1-yl)prop-1-yn-1-yl]phenyl}ethyl]-2-oxo-2,3-dihydro-1,3-benzoxazole-6-sulfonamide] | 134 |
| 155 nM | C[C@H](c1cccc(C#CCN)c1)n1c(=O)oc2cc(S(=O)(=O)Nc3cccc(F)n3)c(F)cc21 [Ex21-21, 3-{(1R)-1-[3-(3-aminoprop-1-yn-1-yl)phenyl]ethyl}-5-fluoro-N-(6-fluoropyridin-2-yl)-2-oxo-2,3-dihydro-1,3-benzoxazole-6-sulfonamide] | 193 |
| 460 nM | C[C@H](c1ccccc1C1=CCC(N)CC1)n1c(=O)oc2cc(S(=O)(=O)Nc3cccc(F)n3)c(F)cc21 (stereo partly drawn) [Ex7-6, 3-{(1R)-1-[2-(4-aminocyclohex-1-en-1-yl)phenyl]ethyl}-5-fluoro-N-(6-fluoropyridin-2-yl)-2-oxo-2,3-dihydro-1,3-benzoxazole-6-sulfonamide] | 123 |

The remaining lines, values behind:

| SMILES | IC50 (human Nav1.7) | ratio of Nav 1.5:Nav 1.7 potency (human Nav1.5) |
| --- | --- | --- |
| Cc1cccc([C@@H](C)n2c(=O)oc3cc(S(=O)(=O)Nc4cccc(F)n4)c(F)cc32)c1Br [Ex14-4, 3-[(1R)-1-(2-Bromo-3-methylphenyl)ethyl]-5-fluoro-N-(6-fluoropyridin-2-yl)-2-oxo-2,3-dihydro-1,3-benzoxazole-6-sulfonamide] | 596 nM | 27 |
| Cc1cc2c(cc1S(=O)(=O)Nc1cccc(F)n1)oc(=O)n2[C@H](C)c1ccccc1C1=CCNCC1 [Ex17-8, N-(6-fluoropyridin-2-yl)-5-methyl-2-oxo-3-{(1R)-1-[2-(1,2,3,6-tetrahydropyridin-4-yl)phenyl]ethyl}-2,3-dihydro-1,3-benzoxazole-6-sulfonamide] | 6 nM | 1452 |
| Cc1cc2c(cc1S(=O)(=O)Nc1cccc(F)n1)oc(=O)n2[C@H](C)c1cccc(C#CCN2CCC2)c1 [Ex21-20, 3-[(1R)-1-{3-[3-(azetidin-1-yl)prop-1-yn-l-yl]phenyl}ethyl]-N-(6-fluoropyridin-2-yl)-5-methyl-2-oxo-2,3-dihydro-1,3-benzoxazole-6-sulfonamide] | 200 nM | 30 |
| C[C@H](c1cccc2c1CNCC2)n1c(=O)oc2cc(S(=O)(=O)Nc3ccc(F)cn3)c(F)cc21.Cl [Ex15-5, (R)-5-Fluoro-N-(5-fluoropyridin-2-yl)-2-oxo-3-(1-(1,2,3,4-tetrahydroisoquinolin-8-yl)ethyl)-2,3-dihydrobenzo[d]oxazole-6-sulfonamide hydrochloride] | 535 nM | 108 |
| C[C@H](c1ccccc1C#CC1(N)CCCCC1)n1c(=O)oc2cc(S(=O)(=O)Nc3cccc(F)n3)c(F)cc21 [Ex8-6, 3-[(1R)-1-{2-[(1-aminocyclohexyl)ethynyl]phenyl}ethyl]-5-fluoro-N-(6-fluoropyridin-2-yl)-2-oxo-2,3-dihydro-1,3-benzoxazole-6-sulfonamide] | 49 nM | 95 |
| C[C@H](c1ccccc1C1=CCNCC1)n1c(=O)oc2cc(S(=O)(=O)Nc3cccc(F)n3)c(F)cc21 [Ex7-5, (R)-5-Fluoro-N-(6-fluoropyridin-2-yl)-2-oxo-3-(1-(2-(1,2,3,6-tetrahydropyridin-4-yl)phenyl)ethyl)-2,3-dihydrobenzo[d]oxazole-6-sulfonamide] | 3 nM | 1398 |
| C[C@H](c1ccccc1CCN)n1c(=O)oc2cc(S(=O)(=O)Nc3cccc(F)n3)c(F)cc21 [Ex24-2, 3-{(1R)-1-[2-(2-aminoethyl)phenyl]ethyl}-5-fluoro-N-(6-fluoropyridin-2-yl)-2-oxo-2,3-dihydro-1,3-benzoxazole-6-sulfonamide] | 27 nM and 18 nM | – |
